Literature values in US10329321B2, “Site-selective functionalization of proteins using traceless affinity labels” (priority 2016, dated 2019).

Key:
[1] = imidazole ring of histidine or its fluorinated replacement
[2] = molecular target: nucleotide binding pocket (NBP) in immunoglobulin Fab arms; settings: binding affinity dependent on the antibody

SMILES | pKa [1] | Kd [2] [µM]
Fc1ncc[nH]1 [2-fluoro-imidazole] | ~1.22 | 
N[C@@H](Cc1c[nH]cn1)C(=O)O [histidine] | ~6 | 
O=C(O)CCCc1c[nH]c2ccccc12 [indole-3-butryic acid, 4-(3-indolyl)butyric acid] |  | 1 to 8
Fc1c[nH]cn1 [4-fluoro-imidazole] | ~1.76 | 
